Data taken from ChEMBL document CHEMBL4138209, “Inhibitory effects and structural insights for a novel series of coumarin-based compounds that selectively target human CA IX and CA XII carbonic anhydrases” (Eur J Med Chem, 2018).

Key:
Carbonic anhydrase 1 = Carbonic anhydrase 1 (Homo sapiens, UniProt P00915); assay: Inhibition of human carbonic anhydrase 1 incubated for 15 mins prior to testing by stopped-flow CO2 hydration assay
Carbonic anhydrase 2 = Carbonic anhydrase 2 (Homo sapiens, UniProt P00918); assay: Inhibition of human carbonic anhydrase 2 incubated for 15 mins prior to testing by stopped-flow CO2 hydration assay
Carbonic anhydrase 9 = Carbonic anhydrase 9 (Homo sapiens, UniProt Q16790); assay: Inhibition of human carbonic anhydrase 9 incubated for 15 mins prior to testing by stopped-flow CO2 hydration assay
Carbonic anhydrase 12 = Carbonic anhydrase 12 (Homo sapiens, UniProt O43570); assay: Inhibition of human carbonic anhydrase 12 incubated for 15 mins prior to testing by stopped-flow CO2 hydration assay
Sequence of Carbonic anhydrase 12 (O43570 whole entry): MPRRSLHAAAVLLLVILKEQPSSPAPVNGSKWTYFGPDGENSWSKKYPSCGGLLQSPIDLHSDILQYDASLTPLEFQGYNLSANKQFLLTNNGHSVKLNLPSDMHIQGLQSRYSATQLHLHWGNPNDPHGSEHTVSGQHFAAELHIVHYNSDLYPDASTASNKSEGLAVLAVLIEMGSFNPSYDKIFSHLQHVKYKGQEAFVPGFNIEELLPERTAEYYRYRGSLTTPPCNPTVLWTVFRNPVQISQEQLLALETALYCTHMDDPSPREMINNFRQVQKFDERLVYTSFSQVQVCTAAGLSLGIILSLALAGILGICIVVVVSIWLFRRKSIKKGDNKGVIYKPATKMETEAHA

Sequence of Carbonic anhydrase 1 (P00915 whole entry): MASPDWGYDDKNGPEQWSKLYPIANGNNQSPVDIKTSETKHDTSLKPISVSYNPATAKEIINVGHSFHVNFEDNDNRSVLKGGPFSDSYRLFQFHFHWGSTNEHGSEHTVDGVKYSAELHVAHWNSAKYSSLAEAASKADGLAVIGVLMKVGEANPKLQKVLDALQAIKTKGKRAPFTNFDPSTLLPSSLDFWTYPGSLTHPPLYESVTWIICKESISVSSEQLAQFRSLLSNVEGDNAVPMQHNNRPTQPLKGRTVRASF

Row | SMILES | Ki (Carbonic anhydrase 1) [nM] | Ki (Carbonic anhydrase 2) [nM] | Ki (Carbonic anhydrase 9) [nM] | Ki (Carbonic anhydrase 12) [nM]
1 | Nc1ccc(-c2cc(=O)oc3cc(O)ccc23)cc1 | > 10000 | > 10000 | 21.6 | –
2 | Cc1c(O)ccc2c(-c3ccccc3)cc(=O)oc12 | > 10000 | > 10000 | 39.5 | 402
3 | O=C(Oc1ccc2ccc(=O)oc2c1)c1ccccc1 | > 10000 | > 10000 | 51.4 | 814
4 | Cc1cccc(-c2cc(=O)oc3c(C)c(O)ccc23)c1 | > 10000 | > 10000 | 37.4 | –
5 | Cc1c(O)ccc2c(-c3ccccc3Cl)cc(=O)oc12 | > 10000 | > 10000 | 27.5 | –
6 | O=C(Oc1cc2ccc(=O)oc2cc1OC(=O)c1ccccc1)c1ccccc1 | > 10000 | > 10000 | 38.4 | –
7 | Cc1ccc(-c2cc(=O)oc3c(C)c(O)ccc23)cc1 | > 10000 | > 10000 | 38.2 | –
8 | Cc1c(O)ccc2c(-c3cccc(Cl)c3)cc(=O)oc12 | > 10000 | > 10000 | 36.6 | –
9 | O=c1ccc2cc(O)ccc2o1 [6-HYDROXYCOUMARIN] | > 10000 | > 10000 | 30.5 | 33.9
10 | Cc1c(O)ccc2c(-c3ccccc3F)cc(=O)oc12 | > 10000 | > 10000 | 95.9 | –
11 | O=c1ccc2cc(O)c(O)cc2o1 [ESCULETIN] | > 10000 | > 10000 | 36.4 | 9.3
12 | CC(=O)Oc1cc2ccc(=O)oc2cc1OC(C)=O | > 10000 | > 10000 | 116 | –
13 | O=c1cc(-c2ccc([N+](=O)[O-])cc2)c2ccc(O)cc2o1 | > 10000 | > 10000 | 20.3 | 6.5
14 | O=c1cc(-c2cccc(Cl)c2)c2ccc(O)cc2o1 | > 10000 | > 10000 | 31 | –
15 | O=c1cc(-c2ccccc2F)c2ccc(O)cc2o1 | > 10000 | > 10000 | 31.8 | –
16 | Cc1cccc(-c2cc(=O)oc3cc(O)ccc23)c1 | > 10000 | > 10000 | 17 | –
17 | CC(=O)Oc1ccc2oc(=O)ccc2c1 | > 10000 | > 10000 | 23.1 | –
18 | Cc1c(O)ccc2c(-c3ccc([N+](=O)[O-])cc3)cc(=O)oc12 | > 10000 | > 10000 | 30.9 | –
19 | O=c1cc(-c2ccc(Cl)cc2)c2ccc(O)cc2o1 | > 10000 | > 10000 | 31.5 | –
20 | Cc1c(O)ccc2c(-c3ccc(Cl)cc3)cc(=O)oc12 | > 10000 | > 10000 | 35.3 | –
21 | O=c1cc(-c2ccccc2Cl)c2ccc(O)cc2o1 | > 10000 | > 10000 | 30.8 | –
22 | CC(=O)Oc1ccc2ccc(=O)oc2c1 [7-ACETOXYCOUMARIN] | > 10000 | > 10000 | 40.2 | 573
23 | O=c1cc(-c2ccccc2)c2ccc(O)cc2o1 | > 10000 | > 10000 | 47.2 | 90.8
24 | Cc1ccc(-c2cc(=O)oc3cc(O)ccc23)cc1 | > 10000 | > 10000 | 35.8 | –
25 | O=C(Oc1ccc2oc(=O)ccc2c1)c1ccccc1 | > 10000 | > 10000 | 29.9 | –
26 | Cc1c(O)ccc2c(-c3ccc(N)cc3)cc(=O)oc12 | > 10000 | > 10000 | – | –
